Data taken from ChEMBL document CHEMBL5257085, “Siderophores: Chemical tools for precise antibiotic delivery” (Bioorg Med Chem Lett, 2023).
pIC50: −log10 of the molar value. Converted amounts (≈) assume the structure as drawn. Each block holds one compound with its values, some of them ahead of it.

Experiments:
Acinetobacter baumannii [1] = assay: Potentiation of imipenem-induced antibacterial activity against OXA-58 producing Acinetobacter baumannii ATCC 17978 assessed as fold change in imipenem MIC; format: functional
Acinetobacter baumannii [2] = assay: Potentiation of imipenem-induced antibacterial activity against OXA-143 producing Acinetobacter baumannii ATCC 17978 assessed as fold change in imipenem MIC; format: functional
Acinetobacter baumannii [3] = assay: Potentiation of imipenem-induced antibacterial activity against OXA-235 producing Acinetobacter baumannii ATCC 17978 assessed as fold change in imipenem MIC; format: functional
Acinetobacter baumannii [4] = assay: Potentiation of imipenem-induced antibacterial activity against OXA-23 producing Acinetobacter baumannii ATCC 17978 assessed as fold change in imipenem MIC; format: functional
Acinetobacter baumannii [5] = assay: Potentiation of imipenem-induced antibacterial activity against OXA-24 producing Acinetobacter baumannii ATCC 17978 assessed as fold change in imipenem MIC; format: functional
Pseudomonas aeruginosa [6] = assay: Antibacterial activity against Pseudomonas aeruginosa assessed as inhibition of bacterial growth incubated for 18 to 48 hrs by two-fold serial dilution method; format: functional; details: time 18-48 hrs
DNA gyrase = DNA gyrase (Escherichia coli, UniProt P0AES4+P0AES6); assay: Inhibition of Escherichia coli DNA gyrase ATPase activity using pBR322 as substrate incubated for 10 mins in presence of NADH and ATP by supercoiling assay; format: protein-complex assay
Escherichia coli [7] = assay: Antibacterial activity against Escherichia coli JW5503 harbouring tolC-knock out mutant assessed as inhibition of bacterial growth incubated for 24 hrs by CLSI protocol based broth microdilution method; format: functional
Klebsiella pneumoniae [8] = assay: Antibacterial activity against KPC-3 producing Klebsiella pneumoniae assessed as inhibition of bacterial growth by CLSI protocol based broth microdilution method; format: functional
Acinetobacter baumannii [9] = assay: Antibacterial activity against OXA-23 producing Acinetobacter baumannii assessed as inhibition of bacterial growth by CLSI protocol based broth microdilution method; format: functional
[10] = tested on: Stenotrophomonas maltophilia; assay: Antibacterial activity against L1 producing Stenotrophomonas maltophilia assessed as inhibition of bacterial growth by CLSI protocol based broth microdilution method; format: functional
Pseudomonas aeruginosa [11] = assay: Antibacterial activity against IMP-1 producing Pseudomonas aeruginosa assessed as inhibition of bacterial growth by CLSI protocol based broth microdilution method; format: functional
Escherichia coli [12] = assay: Antibacterial activity against NDM-1 producing Escherichia coli assessed as inhibition of bacterial growth by CLSI protocol based broth microdilution method; format: functional
Klebsiella pneumoniae [13] = assay: Antibacterial activity against NDM-1 producing Klebsiella pneumoniae assessed as inhibition of bacterial growth by CLSI protocol based broth microdilution method; format: functional
Pseudomonas aeruginosa [14] = assay: Antibacterial activity against VIM-2 producing Pseudomonas aeruginosa assessed as inhibition of bacterial growth by CLSI protocol based broth microdilution method; format: functional
Klebsiella pneumoniae [15] = assay: Antibacterial activity against KPC-2 producing Klebsiella pneumoniae assessed as inhibition of bacterial growth by CLSI protocol based broth microdilution method; format: functional

Compound: C[C@]1(COC(=O)Cc2ccc(O)c(O)c2)[C@H](C(=O)O)N2C(=O)/C(=C/c3ccccn3)[C@H]2S1(=O)=O
- fold change (FC) (Acinetobacter baumannii [1]): 32
- fold change (FC) (Acinetobacter baumannii [2]): 32
- fold change (FC) (Acinetobacter baumannii [3]): 32
- fold change (FC) (Acinetobacter baumannii [4]): 32
- fold change (FC) (Acinetobacter baumannii [5]): 32

Compound: Cc1[nH]c(C(=O)N[C@H]2CCc3nc(NC(=O)CNC(=O)c4ccc(O)c(O)c4)sc3C2)c(Cl)c1Cl
- pIC50 (DNA gyrase): 7.24
- MIC (Escherichia coli [7]): 14 µg/mL (≈ 26 µM)

Second part, the compound after the results:

- MIC (Pseudomonas aeruginosa [6]): 128 µM (≈ 92.9 µg/mL)
Compound: CC(=O)NC[C@H]1CN(c2ccc(N3CCN(C(=O)Cn4cc(COC(=O)NCCCCNC(=O)c5cccc(O)c5O)nn4)CC3)c(F)c2)C(=O)O1

- MIC50 (Klebsiella pneumoniae [8]): 0.12 µg/mL (≈ 0.16 µM)
- MIC50 (Acinetobacter baumannii [9]): 0.12 µg/mL (≈ 0.16 µM)
- MIC50 [10]: 0.12 µg/mL (≈ 0.16 µM)
- MIC50 (Pseudomonas aeruginosa [11]): 0.12 µg/mL (≈ 0.16 µM)
- MIC50 (Escherichia coli [12]): 0.12 µg/mL (≈ 0.16 µM)
- MIC50 (Klebsiella pneumoniae [13]): 0.12 µg/mL (≈ 0.16 µM)
- MIC50 (Pseudomonas aeruginosa [14]): 0.12 µg/mL (≈ 0.16 µM)
- MIC50 (Klebsiella pneumoniae [15]): 0.12 µg/mL (≈ 0.16 µM)
Compound: CC(C)(O/N=C(\C(=O)N[C@@H]1C(=O)N2C(C(=O)[O-])=C(C[N+]3(CCNC(=O)c4ccc(O)c(O)c4Cl)CCCC3)CS[C@H]12)c1csc(N)n1)C(=O)O [CEFIDEROCOL]

- MIC (Pseudomonas aeruginosa [6]): > 1020 µM
Compound: CC(=O)NC[C@H]1CN(c2ccc(N3CCOCC3)c(F)c2)C(=O)O1 [LINEZOLID]
